Assay results from US7759350B2, “Pyrimidine carboxamides” (Orchid Research Laboratories Ltd., priority 2005, dated 2010).

Assays:
[1] = target: T1, purified recombinant COX-2 enzyme (Homo sapiens, UniProt P35354); test: COX-2 enzyme based assay; format: biochemical; details: Conc. 10 μM
T1 sequence (P35354 18-604): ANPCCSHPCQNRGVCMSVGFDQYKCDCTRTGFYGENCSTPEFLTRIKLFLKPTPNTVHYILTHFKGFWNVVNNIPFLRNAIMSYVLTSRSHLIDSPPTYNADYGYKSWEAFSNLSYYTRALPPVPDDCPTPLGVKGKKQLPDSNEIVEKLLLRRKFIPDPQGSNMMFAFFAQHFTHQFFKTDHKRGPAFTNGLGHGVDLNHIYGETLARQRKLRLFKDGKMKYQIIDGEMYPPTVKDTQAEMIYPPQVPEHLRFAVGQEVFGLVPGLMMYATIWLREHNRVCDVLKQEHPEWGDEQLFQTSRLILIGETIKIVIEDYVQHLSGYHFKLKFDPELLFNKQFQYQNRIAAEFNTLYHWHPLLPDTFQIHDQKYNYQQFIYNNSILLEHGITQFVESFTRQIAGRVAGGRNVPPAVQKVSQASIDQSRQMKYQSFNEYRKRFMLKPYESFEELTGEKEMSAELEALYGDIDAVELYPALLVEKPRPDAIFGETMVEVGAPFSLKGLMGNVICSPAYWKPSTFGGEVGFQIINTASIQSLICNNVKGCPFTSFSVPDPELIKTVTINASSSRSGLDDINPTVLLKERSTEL
Description: (§1) COX-1 and COX-2 Enzyme Based Assay
(§2) COX-2 enzyme based assays were carried out to check the inhibitory potential of test compounds on the production of prostaglandin by purified recombinant COX-1/COX-2 enzyme (Proc. Nat. Acad. Sci. USA, 88, 2692-2696, 1991; Clin. Immunoassay 15, 116-120, 1992) In this assay, the potential of the test compound to inhibit the production of prostaglandin either by COX-1 or COX-2 from arachidonic acid (substrate) was measured. This was an enzyme based in-vitro assay to evaluate selective COX inhibition with good reproducibility.
(§3) Arachidonic acid was converted to PGH2 (Intermediate product) by COX1/COX-2 in presence or absence of the test compound. The reaction was carried out at 37° C. and after 2 minutes it was stopped by adding 1M HCl. Intermediate products PGH2 was converted to a stable Prostanoid product PGF2α by SnCl2 reduction. The amount of PGF2α produced in the reaction was inversely proportional to the COX inhibitory potential of the test compound. The prostanoid product was quantified via enzyme immunoassay (EIA) using a broadly specific antibody that binds to all the major forms of Prostaglandin, using Cayman ELISA kit as per the procedure outlined by the manufacturer Cayman Chemicals, Ann Arbor, USA).

[2] = target: purified recombinant COX-1 enzyme (Homo sapiens, UniProt P23219); test: COX-1 enzyme based assay; format: biochemical; details: Conc. 10 μM
Description: as §1, §2, §3

[3] = system: TNF-α; test: In vitro measurement of TNF-α in human PBMC; format: cell-based; details: LPS; for IC50: TNF-α inhibition
Description: In Vitro Measurement of Tumor Necrosis Factor Alpha (TNF-α)
This assay determines the effect of test compounds on the production of TNF-α in human Peripheral Blood Mononuclear Cells (PBMC). Compounds were tested for their ability to inhibit the activity of TNF-α in human PBMC. PBMC were isolated from blood (from healthy volunteers) using BD Vacutainer CPT™ (Cell preparation tube, BD Bio Science) and suspended in RPMI medium (Physiol. Res. 52; 593-598, 2003). The test compounds were pre-incubated with PBMC (0.5 million/incubation well) for 15 minutes at 37° C. and then stimulated with Lipopolysaccharide (Escherichia coli: B4; 1 μg/ml) for 18 hours at 37° C. in 5% CO2. The levels of TNF-α in the cell culture medium were estimated using enzyme linked Immunosorbent assay performed in a 96 well format as per the procedure of the manufacturer (R&D Systems, Inc. 614 McKinley Place Nebr., Minneapolis, Minn. 55413, USA).

[4] = system: TNF-α; test: LPS induced sepsis for measurement of TNF-α inhibition in mice; format: in vivo; details: 50 mg/kg bw oral; female Swiss albino mice; serum 90 minutes after LPS
Description: LPS Induced Sepsis for Measurement of TNF-α Inhibition in Mice
The LPS induced sepsis model in mice was performed as described by Les sekut et al (J Lab Clin Med 1994; 124:813-20). Female Swiss albino mice were selected with their body weights being equivalent within each group. The mice were fasted for 20 hours with free access to water. The mice were dosed orally with the test compound suspended in vehicle containing 0.5% Tween 80 in 0.25% Carboxy-methylcellulose sodium salt. The control mice were administered the vehicle alone. After 30 minutes of oral dosing, the mice were injected with 500 μg of Lipopolysaccharide (Escherichia coli, LPS: B4 from Sigma) in phosphate buffer saline solution into the intraperitoneal cavity of the mice. After 90 minutes of LPS administration, the mice were bled via retro-orbital sinus puncture. Blood samples were stored overnight at 4° C. Serum samples were collected by centrifuging the samples at 4000 rpm for 15 minutes at 4° C. Immediately the serum samples were analysed for TNF-α levels, using commercially available mouse TNF-α ELISA kit (Amersham Biosciences) and assay was performed by the manufacturer instruction.

[5] = system: MCF-7; test: Anti-cancer screen (MTT), MCF-7; format: cell-based; details: Conc. 100 μM
Description: [The source words this procedure for another cell line and reports this cell line under the same test.] (§4) Experimental drugs are screened for anti-cancer activity in three cell lines for their GI50, TGI and LC50 values (using five concentrations for each compound). The cell lines are maintained in DMEM containing 10% fetal bovine serum. 96 well microtiter plates are inoculated with cells in 100 μL for 24 h at 37° C., 5% CO2, 95% air and 100% relative humidity. 5000 HCT116 cells/well, 5000 NCIH460 cells/well, 10000 U251 cells/well and 5000 MDAMB231 cells/well are plated. A separate plate with these cell lines is also inoculated to determine cell viability before the addition of the compounds (T0).
(§5) Following 24 hours incubation, experimental drugs are added to the 96 well plates. Each plate contains one of the above cell lines and the following in triplicate: five different concentrations (0.01, 0.1, 1, 10 and 100 μM) of four different compounds, appropriate dilutions of a cytotoxic standard and control (untreated) wells. Compounds are dissolved in dimethylsulfoxide (DMSO) to make 20 mM stock solutions on the day of drug addition and frozen at −20° C. Serial dilutions of these 20 mM stock solutions are made in complete growth medium such that 100 μL of these drug solutions in medium, of final concentrations equaling 0.01, 0.1, 1, 10 and 100 μM can be added to the cells in triplicate. Standard drugs whose anti-cancer activity has been well documented and which are regularly used are doxorubicin and SAHA.
(§6) Cells are incubated with compounds for 48 hours followed by the addition of 10 μL 3-(4,5-Dimethyl-2-thiazolyl)-2,5-diphenyl-2H-tetrazolium (MTT) solution per well and a subsequent incubation at 37° C., 5% CO2, 95% air and 100% relative humidity, protected from light. After 4 hours, well contents are aspirated carefully followed by addition of 150 μL DMSO per well. Plates are agitated to ensure solution of the formazan crystals in dimethylsulphoxide and absorbance read at 570 nm.
(§7) Percent growth is calculated for each compound's concentration relative to the control and zero measurement wells (To; viability right before compound addition). […]

[6] = system: SF-268; test: Anti-cancer screen (MTT), SF-268; format: cell-based; details: Conc. 100 μM
Description: [The source words this procedure for another cell line and reports this cell line under the same test.] as §4, §5, §6, §7

[7] = system: NCI-H460; test: Anti-cancer screen (MTT), NCI-H460; format: cell-based
Description: as §4
Following 24 hours incubation, experimental drugs are added to the 96 well plates. […] Compounds are dissolved in dimethylsulfoxide (DMSO) to make 20 mM stock solutions on the day of drug addition and frozen at −20° C. […] Standard drugs whose anti-cancer activity has been well documented and which are regularly used are doxorubicin and SAHA.
as §6
Percent growth is calculated for each compound's concentration relative to the control and zero measurement wells (To; viability right before compound addition). If a test well's O.D. value is greater than the To measurement for that cell line % Growth=(test−zero)/(control−zero)×100
If a test well's O.D. value is lower than the T0 measurement for that cell line, […]

[8] = target: T2, COX-2 (Homo sapiens, UniProt P35354); test: Human whole blood assay, COX-2 inhibition (PGE2 after LPS); format: cell-based; details: LPS stimulated; for inhibition at 0.25 µM: Conc. 0.25 μM
T2 construct: Fresh blood was collected in tubes containing sodium heparin by vein puncture from healthy male volunteers; endogenous in cells; host or cells: human whole blood from healthy male volunteers, stimulated with LPS
T2 sequence (P35354 18-604): T1 sequence (P35354 18-604)
Description: Human whole blood provides a protein and cell rich milieu appropriate for the study of biochemical efficacy of anti-inflammatory compounds such as selective COX-2 inhibitors. […] This is correlating with the observation that COX-2 inhibitors have no effect on prostaglandin E2 (PGE2) production in normal blood. These inhibitors were active only after incubation of human blood with lipopolysaccharide (LPS), which induces COX-2 production in the blood.
Fresh blood was collected in tubes containing sodium heparin by vein puncture from healthy male volunteers. […] Then test compounds (at various concentrations) or vehicle were added to blood. After that blood was stimulated with LPS B: 4 (10 μg/ml) and incubated for another 18 hours at 37° C. water bath. After which the blood was centrifuged, plasma was separated and stored at −80° C. (J. Pharmacol. Exp. Ther, 271, 1705, 1994; Proc. Natl. Acad. Sci. USA., 96, 7563, 1999). The plasma was assayed for PGE2 using Cayman ELISA kit as per the procedure outlined by the manufacturer (Cayman Chemicals, Ann Arbor, USA).

[9] = system: IL-1β; test: In vitro measurement of IL-1β in human PBMC; format: cell-based; details: Conc. 0.1 μM, LPS
Description: (§8) In vitro Measurement of Interleukin-6 (IL-6) & Interleukin-1β (IL1β)
(§9) This assay determines the effect of test compounds on the production of IL-6 and IL1β in human PBMC (Physiol. Res. 52: 593-598, 2003). Compounds were tested for their ability to inhibit the activity of IL-6 and IL1β in human PBMC. PBMC were isolated from blood using BD Vacutainer CPT™ Cell preparation tube (BD Bio Science) and suspended in RPMI medium. The test compounds were preincubated with PBMC (0.5 million/incubation well) for 15 minutes at 37° C. and then stimulated with Lipopolysaccharide (Escherichia coli: B4; 1 μg/ml) for 18 hours at 37° C. in 5% CO2. The levels of IL-6 and IL1β in cell culture medium were estimated using enzyme linked Immunosorbent assay performed in a 96 well format as per the procedure of the manufacturer (R&D Systems, Inc. 614 McKinley Place Nebr., Minneapolis, Minn. 55413, USA).

[10] = system: IL-6; test: In vitro measurement of IL-6 in human PBMC; format: cell-based; details: Conc. 0.1 μM, LPS
Description: as §8, §9

purified recombinant COX-1 enzyme, sequence (P23219 24-599): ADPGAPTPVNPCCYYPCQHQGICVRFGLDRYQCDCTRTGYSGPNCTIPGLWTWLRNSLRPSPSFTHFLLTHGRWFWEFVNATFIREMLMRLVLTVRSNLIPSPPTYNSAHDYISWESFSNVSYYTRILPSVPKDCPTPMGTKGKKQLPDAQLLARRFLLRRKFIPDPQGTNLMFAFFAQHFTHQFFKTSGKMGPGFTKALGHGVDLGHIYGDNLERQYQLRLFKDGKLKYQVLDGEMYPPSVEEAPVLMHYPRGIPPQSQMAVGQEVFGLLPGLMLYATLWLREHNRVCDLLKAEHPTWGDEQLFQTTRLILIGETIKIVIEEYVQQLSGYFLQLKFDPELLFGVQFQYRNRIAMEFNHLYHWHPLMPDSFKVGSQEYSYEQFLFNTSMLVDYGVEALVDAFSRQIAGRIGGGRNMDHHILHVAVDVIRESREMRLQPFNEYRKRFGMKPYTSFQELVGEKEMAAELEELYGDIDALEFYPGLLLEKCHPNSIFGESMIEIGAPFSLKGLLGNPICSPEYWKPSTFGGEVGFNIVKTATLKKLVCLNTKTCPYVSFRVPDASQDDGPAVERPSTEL

Row | inhibition at 10 µM [1] | inhibition at 10 µM [2] | IC50 [3] | Compound | TNF-α Inhibition (%) at 50 mg/kg bw [4] | inhibition at 1 µM [3] | further results
1 | 19.3% | 28.8% | 0.86 µM | CNc1nc(-c2cccnc2)nc(SC)c1C(=O)Nc1ccc(OC)cc1 [Example 6, N-(4-Methoxyphenyl)-4-(methylamino)-6-(methylthio)-2-pyridin-3-ylpyrimidine-5-carboxamide] | 77.0% |  | inhibition at 0.1 µM [3]: 30.3%; melting point: 184 to 197 °C
2 | 23.2% | 25.5% | 0.9 µM | CNc1nc(-c2cccnc2)nc(NC)c1C(=O)Nc1ccc(OC)cc1 [Example 28, N-(4-Methoxyphenyl)-4,6-bis(methylamino)-2-pyridin-3-ylpyrimidine-5-carboxamide] | 81.5% | 45.1% | 

The remaining lines, values behind:

Row | Compound | inhibition at 10 µM [1] | inhibition at 10 µM [2] | IC50 [3] | TNF-α Inhibition (%) at 50 mg/kg bw [4] | inhibition at 1 µM [3] | further results
3 | CCc1ccc(NC(=O)c2c(NC)nc(-c3ccc(SC)cc3)nc2SC)cc1 [Example 8, N-(4-Ethylphenyl)-4-(methylamino)-6-(methylthio)-2-[4-(methylthio)phenyl]pyrimidine-5-carboxamide] |  |  |  |  |  | Percentage growth Breast MCF-7 [5]: 4%; Percentage growth CNS SF-268 [6]: 1%; inhibition at 0.1 µM [3]: 27.8%; Percentage growth Lung NCI-H460 ([7]; Conc. 100 μM): 0%
4 | CNc1nc(-c2ccc(S(N)(=O)=O)cc2)nc(NC)c1C(=O)Nc1ccc(C)c(C)c1 [Example 10, 2-[4-(Aminosulfonyl)phenyl]-4,6-bis(methylamino)-N-(3,4-dimethylphenyl)pyrimidine-5-carboxamide] |  |  |  |  |  | inhibition at 10 µM ([8]; Conc. 10 μM): 24.2%
5 | CNc1nc(-c2ccc(S(N)(=O)=O)cc2)nc(SC)c1C(=O)Nc1ccc(C)cc1 [Example 12, 2-[4-(Aminosulfonyl)phenyl]-4-(methylamino)-N-(4-methylphenyl)-6-(methylthio)pyrimidine-5-carboxamide] |  |  |  |  |  | inhibition at 0.25 µM [8]: 24.9%
6 | CNc1nc(-c2ccc(S(N)(=O)=O)cc2)nc(NC)c1C(=O)Nc1ccc(C)cc1 [Example 13, 2-[4-(Aminosulfonyl)phenyl]-4,6-bis(methylamino)-N-(4-methylphenyl)pyrimidine-5-carboxamide] |  |  |  |  |  | inhibition at 0.25 µM [8]: 24.5%; IL-1β Inhibition (%) [9]: Not active; inhibition at 0.1 µM [10]: 21.5%
7 | CSc1nc(-c2ccncc2)nc(NCCO)c1C(=O)Nc1ccc(C)cc1 [Example 35, 4-[(2-Hydroxyethyl)amino]-N-(4-methylphenyl)-6-(methylthio)-2-pyridin-4-ylpyrimidine-5-carboxamide] | 26.8% | 15.2% | 1.8 µM | 59.94% | 52.7% | GI50 ([7]; Homo sapiens, NCI-H460, 48 hours, MTT): 9 µM
8 | CSc1nc(-c2ccncc2)nc(NCCO)c1C(=O)Nc1ccc(C)c(C)c1 [Example 37, N-(3,4-Dimethylphenyl)-4-[(2-hydroxyethyl)amino]-6-(methylthio)-2-pyridin-4-ylpyrimidine-5-carboxamide] | 17.1% | 6.58% | 1.5 µM | 66.65% | 42.7% | 
